The target in the assay is Serine/threonine-protein kinase ATR (Homo sapiens, UniProt Q13535). Briefly: ATR Inhibition Assay. The procedure: Detection of ATR kinase activity utilized the Mobility shift assay to measure the phosphorylation of the substrate protein FAM-RAD17 (GL, Cat. No. 514318, Lot. No. P19042-MJ524315). The assay was developed and conducted at Chempartner. All the test compounds were dissolved in 100% DMSO at concentration of 20 mM, then prepare compounds and conducted the assay as follows: 1) Transfer […] 20 mM compound to 40 μl of 100% DMSO in a 96-well plate.2) Serially dilute the compound by transferring 20 μl to 60 μl of 100% DMSO in the next well and so forth for a total of 10 concentrations.3) Add 100 μl of 100% DMSO to two empty wells for no compound control and no enzyme control in the same 96-well plate. Mark the plate as source plate.4) Transfer 40 μl of compound from source plate to a new 384-well plate as the intermediate plate.5) Transfer 60 nl compounds to assay plate by Echo.6) Add ATR kinase (Eurofins, Cat. No. 14-953, Lot. No. D14 JP007N) into Kinase base buffer (50 mM HEPES, pH 7.5; 0.0015% Brij-35; 0.01% Triton) to prepare 2 enzyme solution, then add 10 μl of 2 enzyme solution to each well of the 384-well assay plate, incubate at room temperature for 10 min.7) Add FAM-RAD17 and ATP (Sigma, Cat. No. A7699-1G, CAS No. 987-65-5) in the kinase base buffer to prepare 2 peptide solution, then add 10 μl to the assay plate.8) Incubate at 28 C. for specified period of time. […]

pIC50: −log10 of the molar value.

Serine/threonine-protein kinase ATR, sequence (Q13535 whole entry): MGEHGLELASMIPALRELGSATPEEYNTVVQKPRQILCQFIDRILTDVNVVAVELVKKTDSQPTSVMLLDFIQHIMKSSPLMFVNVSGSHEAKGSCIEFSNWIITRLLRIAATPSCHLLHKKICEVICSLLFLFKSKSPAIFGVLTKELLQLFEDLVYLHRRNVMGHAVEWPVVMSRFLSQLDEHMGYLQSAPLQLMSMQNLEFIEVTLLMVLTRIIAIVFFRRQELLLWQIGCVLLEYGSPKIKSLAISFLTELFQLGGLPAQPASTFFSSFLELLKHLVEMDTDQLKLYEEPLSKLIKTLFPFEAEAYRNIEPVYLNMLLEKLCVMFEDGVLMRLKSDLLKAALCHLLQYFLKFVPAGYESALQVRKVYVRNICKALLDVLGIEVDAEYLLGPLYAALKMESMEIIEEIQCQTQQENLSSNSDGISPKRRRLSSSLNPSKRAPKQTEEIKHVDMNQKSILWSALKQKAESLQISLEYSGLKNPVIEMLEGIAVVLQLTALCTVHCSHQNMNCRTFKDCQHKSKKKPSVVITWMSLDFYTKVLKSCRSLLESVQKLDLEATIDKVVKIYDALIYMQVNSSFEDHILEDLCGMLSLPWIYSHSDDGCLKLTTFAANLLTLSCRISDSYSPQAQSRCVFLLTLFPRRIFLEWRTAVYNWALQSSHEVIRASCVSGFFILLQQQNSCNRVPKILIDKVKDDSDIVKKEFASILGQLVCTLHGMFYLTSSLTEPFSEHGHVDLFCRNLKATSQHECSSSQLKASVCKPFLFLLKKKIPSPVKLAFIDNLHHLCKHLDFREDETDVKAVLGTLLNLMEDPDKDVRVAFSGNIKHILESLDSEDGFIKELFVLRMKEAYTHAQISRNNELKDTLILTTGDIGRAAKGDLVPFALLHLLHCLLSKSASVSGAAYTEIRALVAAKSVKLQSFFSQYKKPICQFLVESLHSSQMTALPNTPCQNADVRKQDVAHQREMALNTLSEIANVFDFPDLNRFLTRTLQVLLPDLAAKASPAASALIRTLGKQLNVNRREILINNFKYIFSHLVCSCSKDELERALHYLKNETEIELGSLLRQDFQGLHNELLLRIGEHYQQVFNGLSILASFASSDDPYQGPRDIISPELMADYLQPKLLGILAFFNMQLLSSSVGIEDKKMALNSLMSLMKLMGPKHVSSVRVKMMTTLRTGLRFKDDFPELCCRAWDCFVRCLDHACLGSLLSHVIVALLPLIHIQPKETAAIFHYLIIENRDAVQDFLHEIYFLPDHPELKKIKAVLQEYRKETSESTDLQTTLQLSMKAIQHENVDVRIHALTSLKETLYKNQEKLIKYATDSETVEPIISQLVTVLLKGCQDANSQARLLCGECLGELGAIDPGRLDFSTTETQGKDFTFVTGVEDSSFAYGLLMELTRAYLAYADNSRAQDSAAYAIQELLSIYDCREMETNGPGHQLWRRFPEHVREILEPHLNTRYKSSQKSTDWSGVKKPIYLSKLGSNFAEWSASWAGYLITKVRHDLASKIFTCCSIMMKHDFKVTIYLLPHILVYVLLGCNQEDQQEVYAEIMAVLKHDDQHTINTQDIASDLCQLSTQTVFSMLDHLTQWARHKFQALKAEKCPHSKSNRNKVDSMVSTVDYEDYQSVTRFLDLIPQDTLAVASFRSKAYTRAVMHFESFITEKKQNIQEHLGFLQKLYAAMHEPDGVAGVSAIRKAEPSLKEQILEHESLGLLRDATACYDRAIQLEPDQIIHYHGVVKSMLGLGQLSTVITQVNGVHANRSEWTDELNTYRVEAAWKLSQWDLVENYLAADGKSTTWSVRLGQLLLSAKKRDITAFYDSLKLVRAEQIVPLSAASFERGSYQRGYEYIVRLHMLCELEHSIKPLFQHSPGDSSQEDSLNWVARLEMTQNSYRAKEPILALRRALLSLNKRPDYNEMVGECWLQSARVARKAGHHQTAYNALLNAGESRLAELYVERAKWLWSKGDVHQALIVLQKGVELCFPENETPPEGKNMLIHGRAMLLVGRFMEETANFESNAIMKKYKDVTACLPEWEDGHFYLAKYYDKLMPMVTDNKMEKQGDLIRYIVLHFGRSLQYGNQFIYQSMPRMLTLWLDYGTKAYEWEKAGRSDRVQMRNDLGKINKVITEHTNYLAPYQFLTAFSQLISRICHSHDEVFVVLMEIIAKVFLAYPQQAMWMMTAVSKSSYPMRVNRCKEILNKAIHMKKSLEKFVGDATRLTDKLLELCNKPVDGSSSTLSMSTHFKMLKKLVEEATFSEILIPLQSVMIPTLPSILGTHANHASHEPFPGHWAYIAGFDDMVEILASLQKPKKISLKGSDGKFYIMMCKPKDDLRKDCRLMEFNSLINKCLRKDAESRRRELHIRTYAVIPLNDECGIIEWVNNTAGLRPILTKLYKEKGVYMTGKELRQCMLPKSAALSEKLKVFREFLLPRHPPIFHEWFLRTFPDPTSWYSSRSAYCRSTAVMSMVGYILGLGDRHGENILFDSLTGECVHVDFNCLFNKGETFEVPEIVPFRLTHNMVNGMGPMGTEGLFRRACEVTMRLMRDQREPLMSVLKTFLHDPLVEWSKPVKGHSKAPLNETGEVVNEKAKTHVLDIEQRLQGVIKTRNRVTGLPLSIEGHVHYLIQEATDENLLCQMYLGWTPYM

Turning to `C[C@@H]1COCCN1c1cc(-c2ccnn2C)c2c(Cl)nc(-c3ccn[nH]3)n2n1` [US20230295166, Compound 61], the pIC50 was above 7.00. Regarding `Cc1cc(-c2nsc3c(N4CCCCS4(=O)=O)cc(N4CCOC[C@H]4C)nc23)[nH]n1` [US20230295166, Compound 82], the pIC50 was above 7.00.

One may read the pIC50 as the IC50 on a negative log10 scale, so that one unit is a factor of ten. Low values mean a high IC50, high ones a low IC50.

The values above are taken from BindingDB's records for patent US20230295166 (Antengene Discovery, 2023).
